Measurements published in patent US20250230193A1, “CYCLIC COMPOUND HAVING SELECTIVE KRAS INHIBITORY EFFECT ON HRAS AND NRAS” (CHUGAI SEIYAKU KABUSHIKI KAISHA, priority 2022, published 2025).
Where a SMILES comes first, the peptide text is derived from it. Bridges are numbered along the chain shown (N, C = ends). [ ]: non-standard residue; d: D form. The star is where a group is joined. hPhe(3-Cl-4-CF3) = N[C@@H](CCc1ccc(C(F)(F)F)c(Cl)c1)C(=O)O; NPrPhe(4-CF3) = CCCN[C@@H](Cc1ccc(C(F)(F)F)cc1)C(=O)O; Piperazinyl(4-(3-oxetanyl)) = C1OCC1N1CCN(*)CC1; 3Oxa8azabicyclo(3.2.1)octane = C1CC2COCC1N2*; NMeGly(cPent) = CN[C@H](C(=O)O)C1CCCC1; Piperidide(4-Me) = CC1CCN(*)CC1; NMeD = CN[C@@H](CC(=O)O)C(=O)O; NMeL = CN[C@@H](CC(C)C)C(=O)O; Oxazolidin(3-yl) = C1CN(*)CO1; Azetidin(1-yl) = C1CN(*)C1; Morpholide = C1CN(*)CCO1; NMeA = CN[C@@H](C)C(=O)O; Piperidide = C1CCN(*)CC1; Pyrrolidide = C1CCN(*)C1; Ac5c = NC1(C(=O)O)CCCC1; Aze = O=C(O)[C@@H]1CCN1; X25 = CC1(C)CCN(*)C1; Sar = CNCC(=O)O

What was measured:
[1] = target: GDP-bound NRAS wild-type protein (Homo sapiens, UniProt P01111); experiment: Binding to NRAS by surface plasmon resonance (SPR), Single Cycle Kinetics; details: KD ratio NRAS/KRAS, SPR
Sequence of GDP-bound NRAS wild-type protein (P01111 whole entry): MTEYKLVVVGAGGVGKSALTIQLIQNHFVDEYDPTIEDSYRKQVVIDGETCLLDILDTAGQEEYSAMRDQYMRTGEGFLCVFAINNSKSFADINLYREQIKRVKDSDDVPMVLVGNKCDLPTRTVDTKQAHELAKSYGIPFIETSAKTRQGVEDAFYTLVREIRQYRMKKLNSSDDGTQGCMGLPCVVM

[2] = target: GDP-bound HRAS wild-type protein (Homo sapiens, UniProt P01112); experiment: Binding to HRAS by surface plasmon resonance (SPR), Single Cycle Kinetics; details: KD ratio HRAS/KRAS, SPR
Sequence of GDP-bound HRAS wild-type protein (P01112 whole entry): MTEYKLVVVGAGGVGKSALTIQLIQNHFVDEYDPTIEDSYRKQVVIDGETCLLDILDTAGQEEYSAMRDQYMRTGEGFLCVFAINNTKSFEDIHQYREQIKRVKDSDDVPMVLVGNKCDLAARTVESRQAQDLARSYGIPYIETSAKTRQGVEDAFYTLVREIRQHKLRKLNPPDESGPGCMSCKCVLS

| Compound | NRAS/KRAS (ratio of KD for GDP-bound NRAS wild-type to KD for KRAS) [1] | HRAS/KRAS (ratio of KD for GDP-bound HRAS wild-type to KD for KRAS) [2] |
| --- | --- | --- |
| CCCN1C(=O)[C@@H]2CCN2C(=O)[C@@H]2CCN2C(=O)[C@H]([C@@H](C)CC)NC(=O)[C@H](CC(C)C)N(C)C(=O)C[C@@H](C(=O)N2CCOCC2)N(C)C(=O)[C@H](C2CCCC2)N(C)C(=O)C2(CCCC2)NC(=O)[C@@H]2CCCN2C(=O)[C@H](CCc2ccc(C(F)(F)F)c(Cl)c2)NC(=O)CN(C)C(=O)[C@@H]1Cc1ccc(C(F)(F)F)cc1 [PP0168] ([NMeL]I[Aze][Aze][NPrPhe(4-CF3)][Sar][hPhe(3-Cl-4-CF3)]P[Ac5c][NMeGly(cPent)][NMeD]-Morpholide; lactam N-11) | C (A compound having a KD ratio of 0.1 or more and less than 3 is denoted as C) | B (a compound having 3 or more and less than 10 is denoted as B) |
| CCCN1C(=O)CN(C)C(=O)CN(C)C(=O)[C@H]([C@@H](C)CC)NC(=O)[C@H](CC(C)C)N(C)C(=O)C[C@@H](C(=O)N(C)C)N(C)C(=O)[C@H](C2CCCC2)N(C)C(=O)C2(CCCC2)NC(=O)[C@@H]2CCCN2C(=O)[C@H](CCc2ccc(C(F)(F)F)c(Cl)c2)NC(=O)CN(C)C(=O)[C@@H]1Cc1ccc(C(F)(F)F)cc1 [PP0169] ([NMeL]I[Sar][Sar][NPrPhe(4-CF3)][Sar][hPhe(3-Cl-4-CF3)]P[Ac5c][NMeGly(cPent)][NMeD]-NMe2; lactam N-11) | B (a compound having 3 or more and less than 10 is denoted as B) | B (a compound having 3 or more and less than 10 is denoted as B) |
| CCCN1C(=O)CN(C)C(=O)CN(C)C(=O)[C@H]([C@@H](C)CC)NC(=O)[C@H](CC(C)C)N(C)C(=O)C[C@@H](C(=O)N2CCCC2)N(C)C(=O)[C@H](C2CCCC2)N(C)C(=O)C2(CCCC2)NC(=O)[C@@H]2CCCN2C(=O)[C@H](CCc2ccc(C(F)(F)F)c(Cl)c2)NC(=O)CN(C)C(=O)[C@@H]1Cc1ccc(C(F)(F)F)cc1 [PP0170] ([NMeL]I[Sar][Sar][NPrPhe(4-CF3)][Sar][hPhe(3-Cl-4-CF3)]P[Ac5c][NMeGly(cPent)][NMeD]-Pyrrolidide; lactam N-11) | B (a compound having 3 or more and less than 10 is denoted as B) | B (a compound having 3 or more and less than 10 is denoted as B) |
| CCCN1C(=O)CN(C)C(=O)CN(C)C(=O)[C@H]([C@@H](C)CC)NC(=O)[C@H](CC(C)C)N(C)C(=O)C[C@@H](C(=O)N2CCCCC2)N(C)C(=O)[C@H](C2CCCC2)N(C)C(=O)C2(CCCC2)NC(=O)[C@@H]2CCCN2C(=O)[C@H](CCc2ccc(C(F)(F)F)c(Cl)c2)NC(=O)CN(C)C(=O)[C@@H]1Cc1ccc(C(F)(F)F)cc1 [PP0171] ([NMeL]I[Sar][Sar][NPrPhe(4-CF3)][Sar][hPhe(3-Cl-4-CF3)]P[Ac5c][NMeGly(cPent)][NMeD]-Piperidide; lactam N-11) | B (a compound having 3 or more and less than 10 is denoted as B) | C (A compound having a KD ratio of 0.1 or more and less than 3 is denoted as C) |
| CCCN1C(=O)CN(C)C(=O)CN(C)C(=O)[C@H]([C@@H](C)CC)NC(=O)[C@H](CC(C)C)N(C)C(=O)C[C@@H](C(=O)N2CCC2)N(C)C(=O)[C@H](C2CCCC2)N(C)C(=O)C2(CCCC2)NC(=O)[C@@H]2CCCN2C(=O)[C@H](CCc2ccc(C(F)(F)F)c(Cl)c2)NC(=O)CN(C)C(=O)[C@@H]1Cc1ccc(C(F)(F)F)cc1 [PP0172] ([NMeL]I[Sar][Sar][NPrPhe(4-CF3)][Sar][hPhe(3-Cl-4-CF3)]P[Ac5c][NMeGly(cPent)][NMeD]-{Azetidin(1-yl)}; lactam N-11) | B (a compound having 3 or more and less than 10 is denoted as B) | C (A compound having a KD ratio of 0.1 or more and less than 3 is denoted as C) |
| CCCN1C(=O)CN(C)C(=O)CN(C)C(=O)[C@H]([C@@H](C)CC)NC(=O)[C@H](CC(C)C)N(C)C(=O)C[C@@H](C(=O)N2C3CCC2COC3)N(C)C(=O)[C@H](C2CCCC2)N(C)C(=O)C2(CCCC2)NC(=O)[C@@H]2CCCN2C(=O)[C@H](CCc2ccc(C(F)(F)F)c(Cl)c2)NC(=O)CN(C)C(=O)[C@@H]1Cc1ccc(C(F)(F)F)cc1 [PP0173] ([NMeL]I[Sar][Sar][NPrPhe(4-CF3)][Sar][hPhe(3-Cl-4-CF3)]P[Ac5c][NMeGly(cPent)][NMeD]-{3Oxa8azabicyclo(3.2.1)octane}; lactam N-11) | B (a compound having 3 or more and less than 10 is denoted as B) | C (A compound having a KD ratio of 0.1 or more and less than 3 is denoted as C) |
| CCCN1C(=O)CN(C)C(=O)CN(C)C(=O)[C@H]([C@@H](C)CC)NC(=O)[C@H](CC(C)C)N(C)C(=O)C[C@@H](C(=O)N2CCOC2)N(C)C(=O)[C@H](C2CCCC2)N(C)C(=O)C2(CCCC2)NC(=O)[C@@H]2CCCN2C(=O)[C@H](CCc2ccc(C(F)(F)F)c(Cl)c2)NC(=O)CN(C)C(=O)[C@@H]1Cc1ccc(C(F)(F)F)cc1 [PP0174] ([NMeL]I[Sar][Sar][NPrPhe(4-CF3)][Sar][hPhe(3-Cl-4-CF3)]P[Ac5c][NMeGly(cPent)][NMeD]-{Oxazolidin(3-yl)}; lactam N-11) | B (a compound having 3 or more and less than 10 is denoted as B) | B (a compound having 3 or more and less than 10 is denoted as B) |
| CCCN1C(=O)CN(C)C(=O)CN(C)C(=O)[C@H]([C@@H](C)CC)NC(=O)[C@H](CC(C)C)N(C)C(=O)C[C@@H](C(=O)N2CCN(C3COC3)CC2)N(C)C(=O)[C@H](C2CCCC2)N(C)C(=O)C2(CCCC2)NC(=O)[C@@H]2CCCN2C(=O)[C@H](CCc2ccc(C(F)(F)F)c(Cl)c2)NC(=O)CN(C)C(=O)[C@@H]1Cc1ccc(C(F)(F)F)cc1 [PP0175] ([NMeL]I[Sar][Sar][NPrPhe(4-CF3)][Sar][hPhe(3-Cl-4-CF3)]P[Ac5c][NMeGly(cPent)][NMeD]-{Piperazinyl(4-(3-oxetanyl))}; lactam N-11) | B (a compound having 3 or more and less than 10 is denoted as B) | B (a compound having 3 or more and less than 10 is denoted as B) |
| CCCN1C(=O)CN(C)C(=O)CN(C)C(=O)[C@H]([C@@H](C)CC)NC(=O)[C@H](CC(C)C)N(C)C(=O)C[C@@H](C(=O)N2CCC(C)CC2)N(C)C(=O)[C@H](C2CCCC2)N(C)C(=O)C2(CCCC2)NC(=O)[C@@H]2CCCN2C(=O)[C@H](CCc2ccc(C(F)(F)F)c(Cl)c2)NC(=O)CN(C)C(=O)[C@@H]1Cc1ccc(C(F)(F)F)cc1 [PP0176] ([NMeL]I[Sar][Sar][NPrPhe(4-CF3)][Sar][hPhe(3-Cl-4-CF3)]P[Ac5c][NMeGly(cPent)][NMeD]-{Piperidide(4-Me)}; lactam N-11) | B (a compound having 3 or more and less than 10 is denoted as B) | C (A compound having a KD ratio of 0.1 or more and less than 3 is denoted as C) |
| CCCN1C(=O)CN(C)C(=O)CN(C)C(=O)[C@H]([C@@H](C)CC)NC(=O)[C@H](CC(C)C)N(C)C(=O)C[C@@H](C(=O)N2CCC(C)(C)C2)N(C)C(=O)[C@H](C2CCCC2)N(C)C(=O)C2(CCCC2)NC(=O)[C@@H]2CCCN2C(=O)[C@H](CCc2ccc(C(F)(F)F)c(Cl)c2)NC(=O)CN(C)C(=O)[C@@H]1Cc1ccc(C(F)(F)F)cc1 [PP0177] ([NMeL]I[Sar][Sar][NPrPhe(4-CF3)][Sar][hPhe(3-Cl-4-CF3)]P[Ac5c][NMeGly(cPent)][NMeD]-X25; lactam N-11) | B (a compound having 3 or more and less than 10 is denoted as B) | C (A compound having a KD ratio of 0.1 or more and less than 3 is denoted as C) |
| CCCN1C(=O)[C@@H]2CCN2C(=O)[C@H](C)N(C)C(=O)[C@H]([C@@H](C)CC)NC(=O)[C@H](CC(C)C)N(C)C(=O)C[C@@H](C(=O)N(C)C)N(C)C(=O)[C@H](C2CCCC2)N(C)C(=O)C2(CCCC2)NC(=O)[C@@H]2CCCN2C(=O)[C@H](CCc2ccc(C(F)(F)F)c(Cl)c2)NC(=O)CN(C)C(=O)[C@@H]1Cc1ccc(C(F)(F)F)cc1 [PP0178] ([NMeL]I[NMeA][Aze][NPrPhe(4-CF3)][Sar][hPhe(3-Cl-4-CF3)]P[Ac5c][NMeGly(cPent)][NMeD]-NMe2; lactam N-11) | C (A compound having a KD ratio of 0.1 or more and less than 3 is denoted as C) | B (a compound having 3 or more and less than 10 is denoted as B) |
| CCCN1C(=O)[C@@H]2CCN2C(=O)[C@H](C)N(C)C(=O)[C@H]([C@@H](C)CC)NC(=O)[C@H](CC(C)C)N(C)C(=O)C[C@@H](C(=O)N2CCCC2)N(C)C(=O)[C@H](C2CCCC2)N(C)C(=O)C2(CCCC2)NC(=O)[C@@H]2CCCN2C(=O)[C@H](CCc2ccc(C(F)(F)F)c(Cl)c2)NC(=O)CN(C)C(=O)[C@@H]1Cc1ccc(C(F)(F)F)cc1 [PP0179] ([NMeL]I[NMeA][Aze][NPrPhe(4-CF3)][Sar][hPhe(3-Cl-4-CF3)]P[Ac5c][NMeGly(cPent)][NMeD]-Pyrrolidide; lactam N-11) | C (A compound having a KD ratio of 0.1 or more and less than 3 is denoted as C) | B (a compound having 3 or more and less than 10 is denoted as B) |
| CCCN1C(=O)[C@@H]2CCN2C(=O)[C@H](C)N(C)C(=O)[C@H]([C@@H](C)CC)NC(=O)[C@H](CC(C)C)N(C)C(=O)C[C@@H](C(=O)N2CCCCC2)N(C)C(=O)[C@H](C2CCCC2)N(C)C(=O)C2(CCCC2)NC(=O)[C@@H]2CCCN2C(=O)[C@H](CCc2ccc(C(F)(F)F)c(Cl)c2)NC(=O)CN(C)C(=O)[C@@H]1Cc1ccc(C(F)(F)F)cc1 [PP0180] ([NMeL]I[NMeA][Aze][NPrPhe(4-CF3)][Sar][hPhe(3-Cl-4-CF3)]P[Ac5c][NMeGly(cPent)][NMeD]-Piperidide; lactam N-11) | C (A compound having a KD ratio of 0.1 or more and less than 3 is denoted as C) | C (A compound having a KD ratio of 0.1 or more and less than 3 is denoted as C) |
